Experimental data reported in PubChem BioAssay (NCI).
Several values for one entry are separate records, joined by “and”; a condition that tells them apart may be missing. Equal entries are not always repeated.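 Growth conditions: 96-well plates. Treatment: test compound, 48 hours, 5 concentrations. Analysis: linear interpolation between bracketing concentrations; unreached endpoints set to highest concentration. GI50 marks 50% less growth. TGI marks complete inhibition of growth.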

Experiments:
Test in all cases: inhibition of tumour cell growth, NCI panel, 48 h
786-0 renal = system: 786-0 renal
A498 renal = system: A498 renal
IGROV1 ovarian = system: IGROV1 ovarian
HOP-62 NSCLC = system: HOP-62 NSCLC
SNB-19 CNS = system: SNB-19 CNS
NCI/ADR-RES ovarian = system: NCI/ADR-RES ovarian
NCI-H23 lung = system: NCI-H23 lung
BT-549 breast = system: BT-549 breast
HCC-2998 colon = system: HCC-2998 colon
MDA-MB-435 = system: MDA-MB-435
KM12 colon = system: KM12 colon
EKVX NSCLC = system: EKVX NSCLC
HCT-15 colon = system: HCT-15 colon
HT29 colon = system: HT29 colon
NCI-H460 lung = system: NCI-H460 lung
SN12C renal = system: SN12C renal
SW-620 colon = system: SW-620 colon
RPMI-8226 leukemia = system: RPMI-8226 leukemia
MCF7 breast = system: MCF7 breast
T-47D breast = system: T-47D breast
A549 NSCLC = system: A549 NSCLC
SK-MEL-2 melanoma = system: SK-MEL-2 melanoma
SK-MEL-28 melanoma = system: SK-MEL-28 melanoma
MDA-MB-231 breast = system: MDA-MB-231 breast
MOLT-4 leukemia = system: MOLT-4 leukemia
MALME-3M melanoma = system: MALME-3M melanoma
OVCAR-8 ovarian = system: OVCAR-8 ovarian
K-562 leukemia = system: K-562 leukemia
SK-MEL-5 melanoma = system: SK-MEL-5 melanoma
HOP-92 NSCLC = system: HOP-92 NSCLC
PC-3 prostate = system: PC-3 prostate
COLO 205 colon = system: COLO 205 colon
U251 CNS = system: U251 CNS
M14 melanoma = system: M14 melanoma
ACHN renal = system: ACHN renal
NCI-H522 lung = system: NCI-H522 lung
SR leukemia = system: SR leukemia
SK-OV-3 ovarian = system: SK-OV-3 ovarian
OVCAR-5 ovarian = system: OVCAR-5 ovarian
CAKI-1 renal = system: CAKI-1 renal
UACC-62 melanoma = system: UACC-62 melanoma
UO-31 renal = system: UO-31 renal
HCT-116 colon = system: HCT-116 colon
HS 578T breast = system: HS 578T breast
HL-60(TB) leukemia = system: HL-60(TB) leukemia
SF-539 CNS = system: SF-539 CNS
TK-10 renal = system: TK-10 renal

## O=c1cc(-c2cccc(C(F)(F)F)c2)[nH]c2cc3c(cc12)OCO3
786-0 renal
  GI50: 902 nM
  TGI: 7.91 µM and 27 µM
A498 renal
  GI50: 1470 nM
  TGI: 49.9 µM and 7 µM
IGROV1 ovarian
  TGI: 50 µM
HOP-62 NSCLC
  GI50: 517 nM
  TGI: 16.8 µM and 22.5 µM
SNB-19 CNS
  GI50: 427 nM
  TGI: 50 µM and 7.58 µM
NCI/ADR-RES ovarian
  GI50: 251 nM
  TGI: 2140 nM and 829 nM
NCI-H23 lung
  GI50: 276 nM
BT-549 breast
  GI50: 359 nM
  TGI: 50 µM and > 100 µM
HCC-2998 colon
  GI50: 493 nM
MDA-MB-435
  GI50: 175 nM
  TGI: 1950 nM and 366 nM
KM12 colon
  GI50: 486 nM
  TGI: 13 µM and > 100 µM
EKVX NSCLC
  TGI: 50 µM
HCT-15 colon
  GI50: 400 nM
HT29 colon
  GI50: 3.11 µM
  TGI: 40.8 µM and 13 µM
NCI-H460 lung
  GI50: 353 nM
  TGI: 4.08 µM and 11 µM
SN12C renal
  GI50: 735 nM
  TGI: 50 µM and > 100 µM
SW-620 colon
  GI50: 326 nM
  TGI: 50 µM and > 100 µM
RPMI-8226 leukemia
  TGI: > 100 µM
MCF7 breast
  GI50: 950 nM
  TGI: 50 µM and > 100 µM
T-47D breast
  GI50: > 100 µM
  TGI: > 100 µM
A549 NSCLC
  GI50: 521 nM
  TGI: 50 µM
SK-MEL-2 melanoma
  TGI: 3.34 µM
SK-MEL-28 melanoma
  GI50: 455 nM
  TGI: 50 µM and 53.9 µM
MDA-MB-231 breast
  TGI: 30.1 µM
MOLT-4 leukemia
  GI50: 338 nM
  TGI: 50 µM and > 100 µM
MALME-3M melanoma
  TGI: > 100 µM
OVCAR-8 ovarian
  GI50: 482 nM
  TGI: 21.5 µM and 18.5 µM
K-562 leukemia
  TGI: > 100 µM
SK-MEL-5 melanoma
  GI50: 1270 nM
  TGI: 4.41 µM
HOP-92 NSCLC
  TGI: 50 µM
PC-3 prostate
  TGI: > 100 µM
COLO 205 colon
  GI50: 5.1 µM
  TGI: 24 µM and > 100 µM
U251 CNS
  GI50: 145 nM
M14 melanoma
  GI50: 410 nM
  TGI: 50 µM and > 100 µM
ACHN renal
  GI50: 30.5 µM
  TGI: 50 µM and > 100 µM
NCI-H522 lung
  TGI: > 100 µM
SR leukemia
  TGI: > 100 µM
SK-OV-3 ovarian
  GI50: 326 nM
  TGI: 29.1 µM and 16.8 µM
OVCAR-5 ovarian
  GI50: > 100 µM
  TGI: 50 µM and > 100 µM
CAKI-1 renal
  TGI: > 100 µM
UACC-62 melanoma
  GI50: 356 nM
UO-31 renal
  GI50: 315 nM
HCT-116 colon
  GI50: 1980 nM and 482 nM
  TGI: 19.1 µM and 29.4 µM
HS 578T breast
  TGI: 17.5 µM
HL-60(TB) leukemia
  TGI: 705 nM
SF-539 CNS
  GI50: 483 nM
  TGI: 2.53 µM and 6.6 µM
TK-10 renal
  GI50: 22.5 µM
  TGI: > 100 µM
